Data from publication PMC4318710 (Bioorganic & medicinal chemistry letters, 2015).

Assays:
[1] = tested on: C57BL/6 mice; assay: in vivo serum iron levels in mice after intraperitoneal peptide injection; conditions: 50-100 nmoles/mouse
[2] = stability on prolonged storage in DMSO; format: physicochemical; conditions: 10 mM solution in DMSO, room temperature, 30 days, LC/MS/MS

## CCCCCCCCCCCCCCCCNC(=O)CN(CC(N)=O)C(=O)CCCCCNC(=O)C[C@H](Cc1ccccc1)NC(=O)[C@H](CCCNC(=N)N)NC(=O)[C@H](CSC(=CP(=O)(OCC)OCC)P(=O)(OCC)OCC)NC(=O)[C@H](CCCNC(=N)N)NC(=O)C[C@@H]1CCCN1C(=O)[C@@H](NC(=O)[C@H](Cc1c[nH]cn1)NC(=O)[C@@H](NC(=O)CNCC(=O)O)[C@@H](C)O)C(c1ccccc1)c1ccccc1 [PR73SH]
[1]
  serum iron at 6 and 24 h time points: decreased serum iron
[2]
  stability in DMSO: 99.5±0.5%

## CCCCCCCCCCCCCCCCNC(=O)CN(CC(N)=O)C(=O)CCCCCNC(=O)C[C@H](Cc1ccccc1)NC(=O)[C@H](CCCNC(=N)N)NC(=O)[C@H](CS)NC(=O)[C@H](CCCNC(=N)N)NC(=O)C[C@@H]1CCCN1C(=O)[C@@H](NC(=O)[C@H](Cc1c[nH]cn1)NC(=O)[C@@H](NC(=O)CNCC(=O)O)[C@@H](C)O)C(c1ccccc1)c1ccccc1 [PR73]
[1]
  serum iron at 6 and 24 h time points: decreased serum iron
